Laboratory results as given in patent publication US20080269251A1, “Substituted Pyrazinone Derivatives as Alpha2C-Adrenoreceptor Antagonists” (priority 2005, published 2008).

Columns and labels:
[1] = molecular target: T1, 5HT-transporter (Homo sapiens, UniProt P31645); assay: Binding experiment for the 5HT-transporter ([3H]paroxetine, human platelet membranes); conditions: [3H]paroxetine 0.5 nM, 60 min at 25° C.; for IC50: read-out: h-5HTT pIC50 (converted)
T1 construct: Human platelet membranes (Oceanix Biosciences Corporation, Hanover, Md., USA) were thawed; tissue Oceanix Biosciences Corporation, Hanover, Md., USA; host or cells: human platelet membranes
Experimental: (§1) The interaction of the compounds of Formula (I) with α2C-adrenoceptor receptors was assessed in in vitro radioligand binding experiments. In general, a low concentration of a radioligand with a high binding affinity for a particular receptor or transporter is incubated with a sample of a tissue preparation enriched in a particular receptor or transporter or with a preparation of cells expressing cloned human receptors in a buffered medium. During the incubation, the radioligand binds to the receptor or transporter. When equilibrium of binding is reached, the receptor bound radioactivity is separated from the non-bound radioactivity, and the receptor- or transporter-bound activity is counted. The interaction of the test compounds with the receptor is assessed in competition binding experiments. Various concentrations of the test compound are added to the incubation mixture containing the receptor- or transporter preparation and the radioligand. The test compound in proportion to its binding affinity and its concentration inhibits binding of the radioligand. The radioligand used for […] receptor binding was [^3H]-raulwolscine.
Human platelet membranes (Oceanix Biosciences Corporation, Hanover, Md., USA) were thawed, diluted in buffer (Tris-HCl 50 mM, 120 mM NaCl and 5 mM KCl) and quickly (max 3 s) homogenised with an Ultraturrax homogenizer. […] Incubation was stopped by rapid filtration of the incubation mixture over GF/B filters, pre-wetted with 0.1% polyethyleneamine, using a Filtermate196 harvester (Packard, Meriden, Conn.). Filters were rinsed extensively with ice-cold buffer and radioactivity on the filters was counted in a Topcount liquid scintillation counter (Packard, Meriden, Conn.). Data were expressed as cpm. Imipramine (at 1 μM final concentration) was used to determine the non-specific binding.
(§2) Data from assays in the presence of compound were calculated as a percentage of total binding measured in the absence of test compound. Inhibition curves, plotting percent of total binding versus the log value of the concentration of the test compound, were automatically generated, and sigmoidal inhibition curves were fitted using non-linear regression. The pIC50 values of test compounds were derived from individual curves.

[2] = molecular target: T2, human adrenergic-α2A receptor (Homo sapiens, UniProt P08913); assay: Radioligand binding experiment for hα2A-adrenergic receptor ([3H]raulwolscine); conditions: [3H]raulwolscine 1 nM, 60 minutes at 25° C.; for IC50: read-out: h-α2A pIC50 (converted)
T2 construct: expressed in transfected cells; host or cells: CHO cells, stably transfected; membrane preparation
T2 sequence (P08913 1-465): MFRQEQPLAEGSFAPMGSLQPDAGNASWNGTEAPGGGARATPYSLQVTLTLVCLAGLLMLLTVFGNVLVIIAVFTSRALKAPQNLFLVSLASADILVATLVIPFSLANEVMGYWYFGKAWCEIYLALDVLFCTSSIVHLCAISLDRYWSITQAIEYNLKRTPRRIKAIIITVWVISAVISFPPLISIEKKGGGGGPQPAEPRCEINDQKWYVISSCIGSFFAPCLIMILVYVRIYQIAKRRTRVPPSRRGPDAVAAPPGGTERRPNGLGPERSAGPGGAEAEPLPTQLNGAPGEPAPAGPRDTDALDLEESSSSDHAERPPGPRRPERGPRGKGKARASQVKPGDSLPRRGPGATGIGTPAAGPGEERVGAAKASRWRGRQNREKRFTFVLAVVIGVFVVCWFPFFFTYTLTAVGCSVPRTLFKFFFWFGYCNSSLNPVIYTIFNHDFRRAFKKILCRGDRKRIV
Experimental: as §1
(§3) CHO cells, stabile transfected with human adrenergic-α2A, -α2B or α2C receptor cDNA, were cultured in Dulbecco's Modified Eagle's Medium (DMEM)/Nutrient mixture Ham's F12 (ratio 1:1)(Gibco, Gent-Belgium) supplemented with 10% heat inactivated fetal calf serum (Life Technologies, Merelbeke-Belgium) and antibiotics (100 IU/ml penicillin G, 100 μg/ml streptomycin sulphate, 110 μg/ml pyruvic acid and 100 μg/ml L-glutamine). One day before collection, cells were induced with 5 mM sodiumbutyrate. Upon 80-90% of confluence, cells were scraped in phosphate buffered saline without Ca^2+ and Mg^2+ and collected by centrifugation at 1500×g for 10 minutes. The cells were homogenised in Tris-HCl 50 mM using an Ultraturrax homogenizer and centrifuged for 10 minutes at 23,500×g. The pellet was washed once by resuspension and rehomogenization and the final pellet was resuspended in Tris-HCl, divided in 1 ml aliquots and stored at −70° C.
(§4) Membranes were thawed and re-homogenized in incubation buffer (glycylglycine 25 mM, pH 8.0). In a total volume of 500 μl, 2-10 μg protein was incubated with [^3H]raulwolscine (NET-722) (New England Nuclear, USA) (1 nM final concentration) with or without competitor for 60 minutes at 25° C. followed by rapid filtration over GF/B filter using a Filtermate196 harvester (Packard, Meriden, Conn.). Filters were rinsed extensively with ice-cold rinsing buffer (Tris-HCl 50 mM pH 7.4). Filter-bound radioactivity was determined by scintillation counting in a Topcount (Packard, Meriden, Conn.) and results were expressed as counts per minute (cpm). Non-specific binding was determined in the presence of 1 μM oxymetazoline for hα2A- and hα2B receptors and 1 μM spiroxatrine for hα2C receptors.
as §2

[3] = molecular target: T3, human adrenergic-α2C receptor (Homo sapiens, UniProt P18825); assay: Radioligand binding experiment for hα2C-adrenoceptor ([3H]raulwolscine); conditions: [3H]raulwolscine 1 nM, 60 minutes at 25° C.; for IC50: read-out: h-α2C pIC50 (converted)
T3 construct: expressed in transfected cells; host or cells: CHO cells, stably transfected; membrane preparation
T3 sequence (P18825 1-462): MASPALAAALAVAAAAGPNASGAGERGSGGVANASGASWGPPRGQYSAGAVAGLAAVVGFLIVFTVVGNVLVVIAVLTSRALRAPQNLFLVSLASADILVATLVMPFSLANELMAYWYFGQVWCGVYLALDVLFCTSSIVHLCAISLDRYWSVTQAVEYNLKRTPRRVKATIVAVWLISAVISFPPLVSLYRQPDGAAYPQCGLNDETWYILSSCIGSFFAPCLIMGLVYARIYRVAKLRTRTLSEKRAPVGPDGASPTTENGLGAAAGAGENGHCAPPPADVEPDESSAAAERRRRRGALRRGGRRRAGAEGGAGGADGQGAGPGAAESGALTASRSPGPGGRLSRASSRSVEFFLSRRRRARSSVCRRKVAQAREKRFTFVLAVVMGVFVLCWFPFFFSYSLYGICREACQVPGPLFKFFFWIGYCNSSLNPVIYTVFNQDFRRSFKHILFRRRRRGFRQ
Experimental: as §1, §3, §4, §2

T1 sequence (P31645 whole entry): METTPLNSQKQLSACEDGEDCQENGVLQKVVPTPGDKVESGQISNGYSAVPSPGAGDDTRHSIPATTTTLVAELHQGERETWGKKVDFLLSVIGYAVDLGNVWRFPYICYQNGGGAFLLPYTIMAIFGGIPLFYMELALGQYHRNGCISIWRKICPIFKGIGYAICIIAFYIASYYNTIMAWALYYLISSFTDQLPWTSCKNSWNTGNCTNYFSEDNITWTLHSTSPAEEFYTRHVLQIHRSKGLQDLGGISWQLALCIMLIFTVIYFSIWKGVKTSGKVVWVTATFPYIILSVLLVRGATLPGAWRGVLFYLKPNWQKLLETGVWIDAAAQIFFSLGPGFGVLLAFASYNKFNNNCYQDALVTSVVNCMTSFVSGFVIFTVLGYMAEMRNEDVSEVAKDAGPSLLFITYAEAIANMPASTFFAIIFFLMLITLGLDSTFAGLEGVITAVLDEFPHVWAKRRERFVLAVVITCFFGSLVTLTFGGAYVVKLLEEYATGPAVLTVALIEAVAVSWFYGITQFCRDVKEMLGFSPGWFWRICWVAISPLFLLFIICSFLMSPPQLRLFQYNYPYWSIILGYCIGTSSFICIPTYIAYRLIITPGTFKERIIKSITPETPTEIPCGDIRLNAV

| h-5HTT pIC50 [1] | h-α2A pIC50 [2] | h-α2C pIC50 [3] | IC50 [1] [nM] | IC50 [2] [nM] | IC50 [3] [nM] | Compound |
| --- | --- | --- | --- | --- | --- | --- |
|  |  |  | 20 | 200 | 20 | NCc1ccc(-n2ccnc(NC3CCN(Cc4ccc5ccccc5c4)CC3)c2=O)cc1 [1-01] |
|  |  |  | 63.1 | 50.1 | 12.6 | NCc1ccc(Cn2ccnc(NC3CCN(Cc4ccc5ccccc5c4)CC3)c2=O)cc1 [1-02] |
|  |  |  | 200 | 200 | 50.1 | NCCCn1ccnc(NC2CCN(Cc3ccc4ccccc4c3)CC2)c1=O [1-03] |
|  |  |  | 251 | 251 | 25.1 | CNCCCn1ccnc(NC2CCN(Cc3ccc4ccccc4c3)CC2)c1=O [1-04] |
|  |  |  | 20 | 251 | 10 | CCCNCc1ccc(-n2ccnc(NC3CCN(Cc4ccc5ccccc5c4)CC3)c2=O)cc1 [1-06] |
|  |  |  | 7.94 | 126 | 6.31 | O=c1c(NC2CCN(Cc3ccc4ccccc4c3)CC2)nccn1-c1ccc(CNCCF)cc1 [1-07] |
|  |  |  | 10 | 126 | 7.94 | O=c1c(NC2CCN(Cc3ccc4ccccc4c3)CC2)nccn1-c1ccc(CNCCF)c(F)c1 [1-08] |
|  |  |  | 15.8 | 398 | 31.6 | CCNC(=O)Cc1ccc(-n2ccnc(NC3CCN(Cc4ccc5ccccc5c4)CC3)c2=O)cc1 [1-10] |
|  |  |  | 20 | 501 | 20 | CCCNC(=O)Cc1ccc(-n2ccnc(NC3CCN(Cc4ccc5ccccc5c4)CC3)c2=O)cc1 [1-11] |
|  |  |  | 251 | 200 | 31.6 | CN(C)CCCn1ccnc(NC2CCN(Cc3ccc4ccccc4c3)CC2)c1=O [1-12] |
|  |  |  | 2000 | 501 | 63.1 | CCCN(C)C(=O)Cn1ccnc(NC2CCN(Cc3ccc4ccccc4c3)CC2)c1=O [1-13] |
| 7.8 | 6.9 | 8.1 |  |  |  | CN(CCF)Cc1ccc(-n2ccnc(NC3CCN(Cc4ccc5ccccc5c4)CC3)c2=O)cc1 [1-14] |
|  |  |  | 3160 | 398 | 126 | CN(C)C(=O)Cn1ccnc(NC2CCN(Cc3ccc4ccccc4c3)CC2)c1=O [1-15] |
|  |  |  | 79.4 | 200 | 39.8 | CCCCN(Cc1ccccc1)C(=O)Cn1ccnc(NC2CCN(Cc3ccc4ccccc4c3)CC2)c1=O [1-18] |
|  |  |  | 15.8 | 200 | 15.8 | COCCNCc1ccc(-n2ccnc(NC3CCN(Cc4ccc5ccccc5c4)CC3)c2=O)cc1 [1-22] |
|  |  |  | 6.31 | 39.8 | 10 | CCCC(=O)Nc1cccc(-n2ccnc(NC3CCN(Cc4ccc5ccccc5c4)CC3)c2=O)c1 [1-23] |
|  |  |  | 6.31 | 316 | 25.1 | CCCC(=O)NCc1ccc(-n2ccnc(NC3CCN(Cc4ccc5ccccc5c4)CC3)c2=O)cc1 [1-24] |
|  |  |  | 31.6 | 200 | 12.6 | CC(C)(C)OC(=O)NCCCn1ccnc(NC2CCN(Cc3ccc4ccccc4c3)CC2)c1=O [1-32] |
|  |  |  |  |  | 12.6 | O=C1c2ccccc2C(=O)N1CC#CCn1ccnc(NC2CCN(Cc3ccc4ncccc4c3)CC2)c1=O [9-11] |
|  |  |  |  |  | 31.6 | O=C1c2ccccc2C(=O)N1CC#CCn1ccnc(NC2CCN(Cc3ccc4ncccc4c3)CC2)c1=O [9-30] |

More lines, now with the values behind:

| Compound | h-5HTT pIC50 [1] | h-α2A pIC50 [2] | h-α2C pIC50 [3] | IC50 [1] [nM] | IC50 [2] [nM] | IC50 [3] [nM] |
| --- | --- | --- | --- | --- | --- | --- |
| O=C(NCc1ccc(-n2ccnc(NC3CCN(Cc4ccc5ccccc5c4)CC3)c2=O)cc1)C1CCCO1 (racemic) [1-99] | 7.7 | 6.2 | 8.1 |  |  |  |
| CN(C(=O)Cn1ccnc(NC2CCN(Cc3ccc4ccccc4c3)CC2)c1=O)C1CCCCC1 [1-16] |  |  |  | 251 | 316 | 25.1 |
| O=C(Cn1ccnc(NC2CCN(Cc3ccc4ccccc4c3)CC2)c1=O)NCC(c1ccccc1)c1ccccc1 [1-19] |  |  |  | 79.4 | 398 | 63.1 |
| CCOC(CN(Cc1ccccc1)C(=O)Cn1ccnc(NC2CCN(Cc3ccc4ccccc4c3)CC2)c1=O)OCC [1-20] |  |  |  | 100 | 398 | 25.1 |
| COCCN(C)Cc1ccc(-n2ccnc(NC3CCN(Cc4ccc5ccccc5c4)CC3)c2=O)cc1 [1-21] |  |  |  | 15.8 | 251 | 15.8 |
| CCCC(=O)NCc1ccc(-n2ccnc(NC3CCN(Cc4ccc5ccccc5c4)CC3)c2=O)cc1OC [1-25] |  |  |  | 12.6 | 631 | 39.8 |
| CC(CC(=O)NCc1ccc(-n2ccnc(NC3CCN(Cc4ccc5ccccc5c4)CC3)c2=O)cc1)CC(C)(C)C (stereo not shown) [1-27] |  |  |  | 20 | 631 | 63.1 |
| O=C(CC1CCCC1)NCc1ccc(-n2ccnc(NC3CCN(Cc4ccc5ccccc5c4)CC3)c2=O)cc1 [1-28] | 8.1 | 6.3 | 7.5 |  |  |  |
| CCCC(=O)N(Cc1ccc(-n2ccnc(NC3CCN(Cc4ccc5ccccc5c4)CC3)c2=O)cc1)C(=O)CCC [1-29] |  |  |  | 20 | 398 | 39.8 |
| COCCC(=O)NCc1ccc(-n2ccnc(NC3CCN(Cc4ccc5ccccc5c4)CC3)c2=O)cc1 [1-30] |  |  |  | 15.8 | 316 | 31.6 |
| C=CCCC(=O)NCc1ccc(-n2ccnc(NC3CCN(Cc4ccc5ccccc5c4)CC3)c2=O)cc1 [1-31] | 8.1 | 6.5 | 7.5 |  |  |  |
| CC(C)(C)OC(=O)NCc1ccc(-n2ccnc(NC3CCN(Cc4ccc5ccccc5c4)CC3)c2=O)cc1 [1-33] |  |  |  | 25.1 | 501 | 79.4 |
| O=c1c(NC2CCN(Cc3ccc4ccccc4c3)CC2)nccn1-c1ccc(CNCC2CCCO2)cc1 (stereo not shown) [1-79b] |  |  |  | 2.51 |  | 6.31 |
